Source: US11166460B2, “α-amino acrylate microbicide, and preparation method therefor and uses thereof” (priority 2017, dated 2021)
≈ marks a conversion by molar mass, not a printed value. Structures can show the parent of a compound that is named as a salt. Where two headings read alike, the source gives them in different places.

Experiments:
[1] = system: tobacco mosaic virus (TMV); assay: Anti-TMV curative activity (treatment mode), live friction inoculation on tobacco seedlings; assay type: in vivo; conditions: for inhibition at 100 µg/mL: Tobacco mosaic virus
[2] = system: tobacco mosaic virus (TMV); assay: Anti-TMV protective activity (protection mode), live friction inoculation on tobacco seedlings; assay type: in vivo; conditions: for inhibition at 100 µg/mL: Tobacco mosaic virus, read-out: Anti-TMV activity, Protection effect (inhibition)
[3] = system: tobacco mosaic virus (TMV); assay: Anti-TMV inactivation activity (inactivation mode), compound mixed with TMV before inoculation of tobacco leaves; assay type: in vivo; conditions: for inhibition at 100 µg/mL: Tobacco mosaic virus, read-out: Anti-TMV activity, Inactivation effect (inhibition)
[4] = system: tobacco mosaic virus (TMV); assay: Anti-TMV inducing activity (induction mode), tobacco seedlings; assay type: in vivo; conditions: for inhibition at 100 µg/mL: Tobacco mosaic virus
Physalospora piricola = assay: Fungicidal activity, fungi growth rate method, PP; assay type: cell-based; conditions: 50 μg/mL
Cercospora arachidicola = assay: Fungicidal activity, fungi growth rate method, CA; assay type: cell-based; conditions: 50 μg/mL; for inhibition at 50 µg/mL: Mycosphaerella arachidis
Sclerotinia sclerotiorum = assay: microbe, parasite or virus in culture; assay type: cell-based; conditions: for inhibition at 50 µg/mL / EC90: Sclerotinia sclerotiorum; for EC90: read-out: EC90 against S. sclerotiorum in vitro
[5] = system: Phytophthora infestans (Mont) de Bary; assay: microbe, parasite or virus in culture; assay type: cell-based; conditions: for inhibition at 50 µg/mL: Phytophthora infestans
Pellicularia sasakii = assay: Fungicidal activity, fungi growth rate method, PS; assay type: cell-based; conditions: 50 μg/mL
Rhizoctonia cerealis = assay: Fungicidal activity, fungi growth rate method, RC; assay type: cell-based; conditions: 50 μg/mL; for inhibition at 50 µg/mL: Ceratobasidium cereale
wheat Gibberella zeae = assay: microbe, parasite or virus in culture; assay type: cell-based; conditions: for inhibition at 50 µg/mL: Fusarium graminearum
Alternaria solani = assay: Fungicidal activity, fungi growth rate method, AS; assay type: cell-based; conditions: 50 μg/mL; for inhibition at 50 µg/mL: Alternaria solani
Botrytis cinerea = assay: Fungicidal activity, fungi growth rate method, BC; assay type: cell-based; conditions: 50 μg/mL; for inhibition at 50 µg/mL: Botrytis cinerea
[6] = 100 μg/mL, tobacco seedlings, checked on seventh day
[7] = 100 μg/mL, tobacco leaves, checked on seventh day
[8] = read-out: Fungicidal activity, inhibition, PP
[9] = read-out: Anti-TMV activity, Curative effect (inhibition), 100 μg/mL, tobacco seedlings, checked on seventh day
[10] = read-out: Fungicidal activity, inhibition, CA
[11] = 50 μg/mL, read-out: Fungicidal activity (inhibition) against SS: Sclerotinia sclerotiorum
[12] = 50 μg/mL, read-out: Fungicidal activity, inhibition, SS
[13] = read-out: Fungicidal activity, inhibition, PI
[14] = read-out: Fungicidal activity, inhibition, PS
[15] = read-out: Fungicidal activity, inhibition, RC
[16] = read-out: Anti-TMV activity, Induction effect (inhibition), 100 μg/mL, tobacco seedlings
[17] = read-out: Fungicidal activity, inhibition, GZ
[18] = read-out: Fungicidal activity, inhibition, AS
[19] = read-out: Fungicidal activity, inhibition, BC
[20] = read-out: Fungicidal activity (inhibition) against PP: Physalospora piricola
[21] = read-out: Fungicidal activity (inhibition) against CA: Cercospora arachidicola
[22] = read-out: Fungicidal activity (inhibition) against PI: Phytophthora infestans (Mont) de Bary
[23] = read-out: Fungicidal activity (inhibition) against PS: Pellicularia sasakii
[24] = read-out: Fungicidal activity (inhibition) against RC: Rhizoctonia cerealis
[25] = read-out: Fungicidal activity (inhibition) against GZ: wheat Gibberella zeae
[26] = read-out: Fungicidal activity (inhibition) against AS: Alternaria solani
[27] = read-out: Fungicidal activity (inhibition) against BC: Botrytis cinerea
[28] = 100 μg/mL, tobacco seedlings, read-out: Anti-TMV activity, Induction effect (inhibition)

| Compound | melting point [°C] | inhibition at 50 µg/mL (Physalospora piricola; [8]) [%] | inhibition at 100 µg/mL [1, 9] [%] | inhibition at 50 µg/mL (Cercospora arachidicola; [10]) [%] | inhibition at 100 µg/mL [2] [%] | inhibition at 50 µg/mL (Sclerotinia sclerotiorum; [11]) [%] | inhibition at 50 µg/mL (Sclerotinia sclerotiorum; [12]) [%] | inhibition at 50 µg/mL [5, 13] [%] | inhibition at 50 µg/mL (Pellicularia sasakii; [14]) [%] | inhibition at 100 µg/mL [3] [%] | inhibition at 50 µg/mL (Rhizoctonia cerealis; [15]) [%] | inhibition at 100 µg/mL [4, 16] [%] | inhibition at 50 µg/mL (wheat Gibberella zeae; [17]) [%] | inhibition at 50 µg/mL (Alternaria solani; [18]) [%] | inhibition at 50 µg/mL (Botrytis cinerea; [19]) [%] | other results |
| --- | --- | --- | --- | --- | --- | --- | --- | --- | --- | --- | --- | --- | --- | --- | --- | --- |
| O=C(N/C(=C\c1ccccc1)C(=O)N1CCC(O)(c2ccc(Br)cc2)CC1)C1CCNCC1 (as salt: hydrochloride) [Compound 4, (Z)-N-[1-[[4-(4-bromophenyl)-4-hydroxy-1-piperidinyl]carbonyl]-2-phenylethenyl]-1-piperidine-4-carboxamide-hydrochloride] | 147 to 149 |  |  |  |  |  |  |  |  |  |  |  |  |  |  |  |
| CSC(=O)c1cccc2nnsc12 [BTH, Acibenzolar-S-Methyl, reference compound] |  |  |  |  |  |  |  |  |  |  |  |  |  |  |  | Anti-TMV activity, Curative effect (inhibition) [1, 6]: 50.00%; Anti-TMV activity, Protection effect (inhibition) [2, 6]: 76%; Anti-TMV activity, Inactivation effect (inhibition) [3, 7]: 63%; Anti-TMV activity, Induction effect (inhibition) ([4]; 100 μg/mL, tobacco seedlings): 96% |
| O=C(N/C(=C\c1ccccc1)C(=O)N1CCC(O)(c2ccc(Br)cc2)CC1)C1CC1 [Compound 1, (Z)-N-[1-[[4-(4-bromophenyl)-4-hydroxy-1-piperidinyl]carbonyl]-2-phenylethenyl]cyclopropanecarboxamide] | 163 to 164 | 10 | 53 | 16 | 48 | 80 to 95 | 83 | 27 | 14 | 83 | 29 | 11 | 26 | 21 | 21 | Anti-TMV activity, Curative effect (inhibition) [1, 6]: 54% |
| O=C(N/C(=C\c1ccccc1)C(=O)N1CCC(O)(c2ccc(Br)cc2)CC1)C1CCCCC1 [Compound 2, (Z)-N-[1-[[4-(4-bromophenyl)-4-hydroxy-1-piperidinyl]carbonyl]-2-phenylethenyl]cyclohexanecarboxamide] | 124 to 126 | 7 | 50 | 12 | 43 | 100 | 100 | 23 | 19 | 81 | 16 | 77 | 22 | 15 | 15 | EC90 (Sclerotinia sclerotiorum): 565 mg/L (≈ 1110 µM) |
| O=C(N/C(=C\c1ccccc1)C(=O)N1CCC(O)(c2ccc(Br)cc2)CC1)C1CCNCC1 [Compound 4, (Z)-N-[1-[[4-(4-bromophenyl)-4-hydroxy-1-piperidinyl]carbonyl]-2-phenylethenyl]-1-piperidine-4-carboxamide-hydrochloride] |  | 12 | 0 | 6 | 1 |  | 47 | 11 | 9 | 3 | 23 | 1 | 43 | 21 | 24 |  |
| O=C(N/C(=C\c1cccs1)C(=O)N1CCC(O)(c2ccc(Br)cc2)CC1)c1ccccc1 [Compound 24, (Z)-N-[1-[[4-(4-bromophenyl)-4-hydroxy-1-piperidinyl]carbonyl]-2-(2-thienyl)ethenyl]benzamide] | 180 to 182 | 10 | 0 | 16 | 36 | 67 | 67 | 17 | 18 | 1 | 19 |  | 23 | 15 | 14 | inhibition at 50 µg/mL (Physalospora piricola; [20]): < 20%; inhibition at 50 µg/mL (Cercospora arachidicola; [21]): < 25%; inhibition at 50 µg/mL [5, 22]: < 25%; inhibition at 50 µg/mL (Pellicularia sasakii; [23]): < 30%; inhibition at 50 µg/mL (Rhizoctonia cerealis; [24]): < 20%; inhibition at 50 µg/mL (wheat Gibberella zeae; [25]): < 45%; inhibition at 50 µg/mL (Alternaria solani; [26]): < 30%; inhibition at 50 µg/mL (Botrytis cinerea; [27]): ≤ 20% |
| O=C(N/C(=C\c1ccco1)C(=O)N1CCC(O)(c2ccc(Br)cc2)CC1)c1ccccc1 [Compound 25, (Z)-N-[1-[[4-(4-bromophenyl)-4-hydroxy-1-piperidinyl]carbonyl]-2-(2-furanyl)ethenyl]benzamide] | 134 to 135 | 15 | 55 | 22 | 46 | 100 | 100 | 10 | 27 | 31 | 36 |  | 31 | 16 | 20 | inhibition at 50 µg/mL (Physalospora piricola; [20]): < 20%; inhibition at 50 µg/mL (Cercospora arachidicola; [21]): < 25%; EC90 (Sclerotinia sclerotiorum): 221 mg/L (≈ 446 µM); inhibition at 50 µg/mL [5, 22]: < 25%; inhibition at 50 µg/mL (Pellicularia sasakii; [23]): < 30%; inhibition at 50 µg/mL (Rhizoctonia cerealis; [24]): 36%; inhibition at 50 µg/mL (wheat Gibberella zeae; [25]): < 45%; inhibition at 50 µg/mL (Alternaria solani; [26]): < 30%; inhibition at 50 µg/mL (Botrytis cinerea; [27]): ≤ 20% |
| O=C(N/C(=C\c1ccccc1)C(=O)N1CCC(O)(c2ccc(Br)cc2)CC1)c1ccccc1 [Compound 76, (Z)-N-[1-[[4-(4-bromophenyl)-4-hydroxy-1-piperidinyl]carbonyl]-2-phenylethenyl]benzamide, reference compound] |  | 15 | 0 | 24 | 38 | 50 | 50 | 24 | 14 | 29 | 15 | 15 | 43 | 14 | 18 | inhibition at 50 µg/mL (Physalospora piricola; [20]): 15%; inhibition at 50 µg/mL (Cercospora arachidicola; [21]): 24%; inhibition at 50 µg/mL [5, 22]: 24%; inhibition at 50 µg/mL (Pellicularia sasakii; [23]): 14%; inhibition at 50 µg/mL (Rhizoctonia cerealis; [24]): 15%; inhibition at 50 µg/mL (wheat Gibberella zeae; [25]): 43%; inhibition at 50 µg/mL (Alternaria solani; [26]): 14%; inhibition at 50 µg/mL (Botrytis cinerea; [27]): 18% |
| CNCC(=O)N[C@@H](CO)C(=O)N[C@H]1[C@H](O)[C@@H](O)[C@H](n2ccc(N)nc2=O)O[C@@H]1C(N)=O [Ningnanmycin, ningnanmycin, reference compound] |  |  | 63 |  | 71 |  |  |  |  | 58 |  | 82 |  |  |  | Anti-TMV activity, Curative effect (inhibition) [1, 6]: 62% |
| NC(=O)c1ncn([C@@H]2O[C@H](CO)[C@@H](O)[C@H]2O)n1 [Ribavirin, ribavirin, reference compound] |  |  | 28 |  | 58 |  |  |  |  |  |  |  |  |  |  | inhibition at 100 µg/mL [3, 7]: 81%; inhibition at 100 µg/mL [4, 28]: 4% |
| Cc1ccc(NC(=O)c2snnc2C)cc1Cl [TDL, Tiadinil, reference compound] |  |  |  |  |  |  |  |  |  |  |  |  |  |  |  | inhibition at 100 µg/mL ([1]; 100 μg/mL, tobacco seedlings, checked on seventh day, read-out: Anti-TMV activity, Curative effect (inhibition)): 49%; inhibition at 100 µg/mL [2, 6]: 32%; inhibition at 100 µg/mL [3, 7]: 55%; inhibition at 100 µg/mL [4, 28]: 73% |
| CO/C=C(/C(=O)OC)c1ccccc1Oc1cc(Oc2ccccc2C#N)ncn1 [azoxystrobin, reference compound] |  |  |  |  |  |  |  |  |  |  |  |  |  |  |  | Fungicidal activity (inhibition) against PP: Physalospora piricola (Physalospora piricola): 81%; Fungicidal activity (inhibition) against CA: Cercospora arachidicola (Cercospora arachidicola): 81%; Fungicidal activity, inhibition, SS (Sclerotinia sclerotiorum; 50 μg/mL): 100%; Fungicidal activity (inhibition) against PI: Phytophthora infestans (Mont) de Bary ([5]; 50 μg/mL): 91%; Fungicidal activity (inhibition) against PS: Pellicularia sasakii (Pellicularia sasakii): 92%; Fungicidal activity (inhibition) against RC: Rhizoctonia cerealis (Rhizoctonia cerealis): 67%; Fungicidal activity (inhibition) against GZ: wheat Gibberella zeae (wheat Gibberella zeae; 50 μg/mL): 100%; Fungicidal activity (inhibition) against AS: Alternaria solani (Alternaria solani): 79%; Fungicidal activity (inhibition) against BC: Botrytis cinerea (Botrytis cinerea): 78% |
